Laboratory results published in ChEMBL document CHEMBL1649254, “A Ser29Leu substitution in the cytosine deaminase Fca1p is responsible for clade-specific flucytosine resistance in Candida dubliniensis” (2009).

What was measured:
Assay type in all cases: functional
Candida dubliniensis [1] = assay: […] activity against 5FC- […] Candida dubliniensis isolate SA109T1 harboring plasmid pNIM1 carrying CdFCA1 gene by broth microdilution method in presence of 30 ug/ml DOX
Candida dubliniensis [2] = assay: […] activity against 5FC- resistant Candida dubliniensis isolate harboring plasmid p7276T3 carrying CdFCA1 gene by broth microdilution method in presence of 30 ug/ml DOX
Candida dubliniensis [3] = assay: […] activity against 5FC- resistant Candida dubliniensis isolate harboring plasmid p7276T2 carrying CdFCA1 gene by broth microdilution method in presence of 30 ug/ml DOX
Candida dubliniensis [4] = assay: […] activity against 5FC- resistant Candida dubliniensis isolate harboring plasmid p7276T1 carrying CdFCA1 gene by broth microdilution method in presence of 30 ug/ml DOX
Candida dubliniensis [5] = assay: […] activity against Candida dubliniensis harboring plasmid p7276 by broth microdilution method in presence of 30 ug/ml DOX
Candida dubliniensis [6] = assay: […] activity against Candida dubliniensis isolate SA109 by broth microdilution method in presence of 30 ug/ml DOX
Candida dubliniensis [7] = assay: […] activity against Candida dubliniensis isolate SA113 by broth microdilution method in presence of 30 ug/ml DOX
Candida dubliniensis [8] = assay: […] activity against Candida dubliniensis isolate harboring plasmid p7276 carrying GFP1T1 gene by broth microdilution method in presence of 25 ug/ml DOX
Candida dubliniensis [9] = assay: […] activity against 5FC- […] Candida dubliniensis isolate SA113T1 harboring plasmid pNIM1 carrying CdFCA1 gene by broth microdilution method in presence of 25 ug/ml DOX
Candida dubliniensis [10] = assay: […] activity against 5FC- […] Candida dubliniensis isolate SA109T2 harboring plasmid pNIM1 carrying CdFCA1 gene by broth microdilution method in presence of 25 ug/ml DOX
Candida dubliniensis [11] = assay: […] activity against 5FC- […] Candida dubliniensis isolate SA109T1 harboring plasmid pNIM1 carrying CdFCA1 gene by broth microdilution method in presence of 25 ug/ml DOX
Candida dubliniensis [12] = assay: […] activity against 5FC- resistant Candida dubliniensis isolate harboring plasmid p7276T3 carrying CdFCA1 gene by broth microdilution method in presence of 25 ug/ml DOX
Candida dubliniensis [13] = assay: […] activity against 5FC- resistant Candida dubliniensis isolate harboring plasmid p7276T2 carrying CdFCA1 gene by broth microdilution method in presence of 25 ug/ml DOX
Candida dubliniensis [14] = assay: […] activity against 5FC- resistant Candida dubliniensis isolate harboring plasmid p7276T1 carrying CdFCA1 gene by broth microdilution method in presence of 25 ug/ml DOX
Candida dubliniensis [15] = assay: […] activity against Candida dubliniensis harboring plasmid p7276 by broth microdilution method in presence of 25 ug/ml DOX
Candida dubliniensis [16] = assay: […] activity against Candida dubliniensis isolate SA109 by broth microdilution method in presence of 25 ug/ml DOX
Candida dubliniensis [17] = assay: […] activity against Candida dubliniensis isolate SA113 by broth microdilution method in presence of 25 ug/ml DOX
Candida dubliniensis [18] = assay: […] activity against Candida dubliniensis isolate harboring plasmid p7276 carrying GFP1T1 gene by broth microdilution method
Candida dubliniensis [19] = assay: […] activity against 5FC- susceptible Candida dubliniensis isolate SA113T1 harboring plasmid pNIM1 carrying CdFCA1 gene by broth microdilution method
Candida dubliniensis [20] = assay: […] activity against 5FC- […] Candida dubliniensis isolate SA109T2 harboring plasmid pNIM1 carrying CdFCA1 gene by broth microdilution method
Candida dubliniensis [21] = assay: […] activity against 5FC- […] Candida dubliniensis isolate SA109T1 harboring plasmid pNIM1 carrying CdFCA1 gene by broth microdilution method
Candida dubliniensis [22] = assay: […] activity against 5FC- resistant Candida dubliniensis isolate harboring plasmid p7276T3 carrying CdFCA1 gene by broth microdilution method
Candida dubliniensis [23] = assay: […] activity against 5FC- resistant Candida dubliniensis isolate harboring plasmid p7276T2 carrying CdFCA1 gene by broth microdilution method
Candida dubliniensis [24] = assay: […] activity against 5FC- resistant Candida dubliniensis isolate harboring plasmid p7276T1 carrying CdFCA1 gene by broth microdilution method
Candida dubliniensis [25] = assay: […] activity against Candida dubliniensis harboring plasmid p7276 by broth microdilution method
Candida dubliniensis [26] = assay: […] activity against Candida dubliniensis isolate SA109 by broth microdilution method
Candida dubliniensis [27] = assay: […] activity against Candida dubliniensis isolate SA113 by broth microdilution method
Candida dubliniensis [28] = assay: […] activity against Candida dubliniensis isolate SA121 of Cd25 fingerprint group 3 and ITS genotype 4 by CLSI M27-A2 method
Candida dubliniensis [29] = assay: […] activity against Candida dubliniensis isolate SA118 of Cd25 fingerprint group 3 and ITS genotype 3 by CLSI M27-A2 method
Candida dubliniensis [30] = assay: […] activity against Candida dubliniensis isolate SA113 of Cd25 fingerprint group 3 and ITS genotype 4 by CLSI M27-A2 method
Candida dubliniensis [31] = assay: […] activity against Candida dubliniensis isolate SA109 of Cd25 fingerprint group 3 and ITS genotype 3 by CLSI M27-A2 method
Candida dubliniensis [32] = assay: […] activity against Candida dubliniensis isolate SA108 of Cd25 fingerprint group 3 and ITS genotype 3 by CLSI M27-A2 method
Candida dubliniensis [33] = assay: […] activity against Candida dubliniensis isolate SA103 of Cd25 fingerprint group 3 and ITS genotype 3 by CLSI M27-A2 method
Candida dubliniensis [34] = assay: […] activity against Candida dubliniensis isolate SA107 of Cd25 fingerprint group 3 and ITS genotype 3 by CLSI M27-A2 method
Candida dubliniensis [35] = assay: […] activity against Candida dubliniensis isolate SA100 of Cd25 fingerprint group 3 and ITS genotype 3 by CLSI M27-A2 method
Candida dubliniensis [36] = assay: […] activity against Candida dubliniensis isolate Eg207 of Cd25 fingerprint group 3 and ITS genotype 4 by CLSI M27-A2 method
Candida dubliniensis [37] = assay: […] activity against Candida dubliniensis isolate Eg202 of Cd25 fingerprint group 3 and ITS genotype 4 by CLSI M27-A2 method
Candida dubliniensis [38] = assay: […] activity against Candida dubliniensis isolate Eg201 of Cd25 fingerprint group 3 and ITS genotype 4 by CLSI M27-A2 method
Candida dubliniensis [39] = assay: […] activity against Candida dubliniensis isolate Eg200 of Cd25 fingerprint group 3 and ITS genotype 4 by CLSI M27-A2 method
Candida dubliniensis [40] = assay: […] activity against Candida dubliniensis isolate p7718 of Cd25 fingerprint group 3 and ITS genotype 4 by CLSI M27-A2 method
Candida dubliniensis [41] = assay: […] activity against Candida dubliniensis isolate p6785 of Cd25 fingerprint group 2 and ITS genotype 3 by CLSI M27-A2 method
Candida dubliniensis [42] = assay: […] activity against Candida dubliniensis isolate p7276 of Cd25 fingerprint group 2 and ITS genotype 3 by CLSI M27-A2 method
Candida dubliniensis [43] = assay: […] activity against Candida dubliniensis isolate Eg206 of Cd25 fingerprint group 1 and ITS genotype 1 by CLSI M27-A2 method
Candida dubliniensis [44] = assay: […] activity against Candida dubliniensis isolate Eg203 of Cd25 fingerprint group 1 and ITS genotype 1 by CLSI M27-A2 method
Candida dubliniensis [45] = assay: […] activity against Candida dubliniensis isolate SA115 of Cd25 fingerprint group 1 and ITS genotype 1 by CLSI M27-A2 method
Candida dubliniensis [46] = assay: […] activity against Candida dubliniensis isolate SA105 of Cd25 fingerprint group 1 and ITS genotype 1 by CLSI M27-A2 method
Candida dubliniensis [47] = assay: […] activity against Candida dubliniensis isolate SA101 of Cd25 fingerprint group 1 and ITS genotype 1 by CLSI M27-A2 method
Candida dubliniensis [48] = assay: […] activity against Candida dubliniensis isolate CD36b of Cd25 fingerprint group 1 and ITS genotype 1 by CLSI M27-A2 method
Candida albicans [49] = assay: […] activity against Candida albicans harboring Gly28Asp substitution in the cytosine deaminase gene by EUCAST method
Candida albicans [50] = assay: […] activity against Candida albicans harboring Ser29Leu substitution in the cytosine deaminase gene by EUCAST method
Candida dubliniensis [51] = assay: […] activity against 5FC-resistant Candida dubliniensis by NCCLS M27-A2 broth microdilution method
Candida dubliniensis [52] = assay: […] activity against 5FC-susceptible Candida dubliniensis by NCCLS M27-A2 broth microdilution method
Candida albicans [53] = assay: […] activity against Candida albicans by EUCAST method
Candida dubliniensis [54] = assay: […] activity against 5FC- […] Candida dubliniensis isolate SA109T2 harboring plasmid pNIM1 carrying CdFCA1 gene by broth microdilution method in presence of 30 ug/ml DOX
Candida dubliniensis [55] = assay: […] activity against 5FC- susceptible Candida dubliniensis isolate SA113T1 harboring plasmid pNIM1 carrying CdFCA1 gene by broth microdilution method in presence of 30 ug/ml DOX
Candida dubliniensis [56] = assay: […] activity against Candida dubliniensis isolate harboring plasmid p7276 carrying GFP1T1 gene by broth microdilution method in presence of 30 ug/ml DOX

Measured: MIC

Nc1nc(=O)[nH]cc1F [FLUCYTOSINE]
≥ 0.06 µg/mL: Candida albicans [53]
≥ 128 µg/mL: Candida dubliniensis [6] | Candida dubliniensis [7] | Candida dubliniensis [16] | Candida dubliniensis [17] | Candida dubliniensis [19] | Candida dubliniensis [20] | Candida dubliniensis [21] | Candida dubliniensis [26] | Candida dubliniensis [27] | Candida dubliniensis [28] | Candida dubliniensis [29] | Candida dubliniensis [30] | Candida dubliniensis [31] | Candida dubliniensis [32] | Candida dubliniensis [33] | Candida dubliniensis [34] | Candida dubliniensis [35] | Candida dubliniensis [36] | Candida dubliniensis [37] | Candida dubliniensis [38] | Candida dubliniensis [39] | Candida dubliniensis [51]
4 µg/mL: Candida albicans [50]
≤ 0.125 µg/mL: Candida dubliniensis [52]
> 64 µg/mL: Candida albicans [49]
≤ 0.25 µg/mL: all other assays above

O=c1[nH]cc(F)c(=O)[nH]1 [FLUOROURACIL]
8 µg/mL: Candida dubliniensis [31] | Candida dubliniensis [39] | Candida dubliniensis [42]
32 µg/mL: Candida dubliniensis [28] | Candida dubliniensis [29] | Candida dubliniensis [30] | Candida dubliniensis [32] | Candida dubliniensis [33] | Candida dubliniensis [34] | Candida dubliniensis [35] | Candida dubliniensis [36] | Candida dubliniensis [37] | Candida dubliniensis [38] | Candida dubliniensis [43] | Candida dubliniensis [45] | Candida dubliniensis [46] | Candida dubliniensis [48]
16 µg/mL: Candida dubliniensis [40] | Candida dubliniensis [41] | Candida dubliniensis [44] | Candida dubliniensis [47]
